Measured values taken from ChEMBL document CHEMBL2034872, “Antineoplastic agents. 587. Isolation and structure of 3-epipancratistatin from Narcissus cv. Ice Follies” (2012).
≈ marks a conversion by molar mass, not a printed value.

Legend:
Assay type in all cases: functional
[1] = system: P388; test: Cytotoxicity against mouse P388 cells after 48 hrs by cell counting; details: P388, 48 h, read-out: ED50 (the source's name)
[2] = system: BXPC-3; test: Cytotoxicity against human BxPC3 cells after 48 hrs by SRB assay; details: BXPC-3, 48 h
[3] = system: MCF7; test: Cytotoxicity against human MCF7 cells after 48 hrs by SRB assay; details: MCF7, 48 h
[4] = system: SF-268; test: Cytotoxicity against human SF268 cells after 48 hrs by SRB assay; details: SF-268, 48 h
[5] = system: NCI-H460; test: Cytotoxicity against human NCI-H460 cells after 48 hrs by SRB assay; details: NCI-H460, 48 h
[6] = system: KM-20L2; test: Cytotoxicity against human KM20L2 cells after 48 hrs by SRB assay; details: KM-20L2, 48 h
[7] = system: DU-145; test: Cytotoxicity against human DU145 cells after 48 hrs by SRB assay; details: DU-145, 48 h

Row | SMILES | EC50 [1] [µg/mL] | GI50 [2] [µg/mL] | GI50 [3] [µg/mL] | GI50 [4] [µg/mL] | GI50 [5] [µg/mL] | GI50 [6] [µg/mL] | GI50 [7] [µg/mL]
1 | O=C1N[C@@H]2C(=C[C@H](O)[C@@H](O)[C@H]2O)c2cc3c(c(O)c21)OCO3 [NARCICLASINE] | 0.018 (≈ 0.0586 µM) | – | – | – | – | – | –
2 | O=C1N[C@H]2[C@H](O)[C@@H](O)[C@@H](O)[C@H](O)[C@@H]2c2cc3c(c(O)c21)OCO3 (relative stereo) | 0.69 (≈ 2.12 µM) | 1.7 (≈ 5.23 µM) | 2.2 (≈ 6.76 µM) | 0.74 (≈ 2.28 µM) | 0.85 (≈ 2.61 µM) | 2.3 (≈ 7.07 µM) | 1.3 (≈ 4 µM)
3 | O=C1N[C@H]2[C@H](O)[C@H](O)[C@@H](O)[C@H](O)[C@@H]2c2cc3c(c(O)c21)OCO3 [PANCRATISTATIN] | 0.017 (≈ 0.0523 µM) | 0.02 (≈ 0.0615 µM) | 0.023 (≈ 0.0707 µM) | 0.014 (≈ 0.043 µM) | 0.032 (≈ 0.0984 µM) | 0.025 (≈ 0.0769 µM) | 0.015 (≈ 0.0461 µM)
